Results as given in PubChem BioAssay (NCI).
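1) Cells in 96-well plates. 2) Compound, 48 h, 5 concentrations. 3) Linear interpolation between surrounding doses. 4) Unreached endpoint = highest concentration. TGI is the concentration that stops growth completely.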

Columns and labels:
Test in all cases: NCI tumour cell line growth inhibition, 48 h
M19-MEL melanoma = test system: M19-MEL melanoma
P388/ADR leukemia = test system: P388/ADR leukemia
P388 leukemia = test system: P388 leukemia
SN12K1 renal = test system: SN12K1 renal
XF 498 CNS = test system: XF 498 CNS
LXFL 529 NSCLC = test system: LXFL 529 NSCLC
DMS 114 small cell lung = test system: DMS 114 small cell lung
RXF-631 renal = test system: RXF-631 renal

## O=C(NC(Cc1ccc(I)cc1)C(=O)O)c1ccc(Cl)cc1 (centres undefined)
M19-MEL melanoma
  TGI: > 100 µM
P388/ADR leukemia
  TGI: > 100 µM
P388 leukemia
  TGI: > 100 µM
SN12K1 renal
  TGI: > 100 µM
XF 498 CNS
  TGI: > 100 µM

## Cc1c2cc[n+](C)cc2c(C)c2c1oc1ccccc12
M19-MEL melanoma
  TGI: 8.99 µM
LXFL 529 NSCLC
  TGI: 15.8 µM
DMS 114 small cell lung
  TGI: 7.86 µM

## O=C1OC2(OC2c2ccc(Cl)cc2)c2ccccc21 (centres undefined)
M19-MEL melanoma
  TGI: > 100 µM
LXFL 529 NSCLC
  TGI: 78.2 µM
DMS 114 small cell lung
  TGI: > 100 µM
XF 498 CNS
  TGI: > 100 µM

## COc1cc([N+](=O)[O-])ccc1NC(=O)c1cccc([N+](=O)[O-])c1O
M19-MEL melanoma
  TGI: > 100 µM
LXFL 529 NSCLC
  TGI: > 100 µM
DMS 114 small cell lung
  TGI: > 100 µM
RXF-631 renal
  TGI: > 100 µM

## CS(=O)(=O)OCCN(CCOS(C)(=O)=O)c1ccc(/C=N/Nc2ncnc3nc[nH]c23)cc1
M19-MEL melanoma
  TGI: 51 µM
DMS 114 small cell lung
  TGI: 26.2 µM
XF 498 CNS
  TGI: 38.8 µM

## N=C(N)SCc1cccc([N+](=O)[O-])c1
M19-MEL melanoma
  TGI: > 100 µM
P388/ADR leukemia
  TGI: 41.2 µM
DMS 114 small cell lung
  TGI: 90.7 µM
P388 leukemia
  TGI: 33.6 µM
SN12K1 renal
  TGI: 98.6 µM
XF 498 CNS
  TGI: 71.8 µM

## C[n+]1c2ccccc2c(CNC(CS)C(=O)O)c2ccccc21 (centres undefined)
M19-MEL melanoma
  TGI: 90.6 µM
LXFL 529 NSCLC
  TGI: > 100 µM
RXF-631 renal
  TGI: 70.4 µM
XF 498 CNS
  TGI: 40.3 µM

## CC1C(=O)C(C)C(c2ccco2)N(N=O)C1c1ccco1 (centres undefined)
M19-MEL melanoma
  TGI: > 100 µM
P388/ADR leukemia
  TGI: > 100 µM
P388 leukemia
  TGI: > 100 µM
SN12K1 renal
  TGI: > 100 µM
XF 498 CNS
  TGI: 50.5 µM
